Assay results from the NIST ThermoML archive (doi:10.1021/je1007923).
± gives the expanded uncertainty stated by the source.

Conditions: 101.33 kPa, Liquid, Vibrating tube method

Compound `Cc1ccccc1O` [2-methylphenol] has a mass density (308.15 K) of 1032.73 ± 0.28 kg/m3.
Compound `Cc1cccc(O)c1` [3-methylphenol] has a mass density (293.15 K) of 1033.85 ± 0.09 kg/m3.
In the case of `Cc1ccc(O)cc1` [4-methylphenol], the mass density (313.15 K) is reported as 1018.8 ± 0.08 kg/m3.
`CCCCCCC` [heptane] showed a mass density (298.15 K) of 679.43 ± 0.23 kg/m3.
Compound `CCCCCCCC` [octane] has a mass density (298.15 K) of 698.49 ± 0.23 kg/m3.
Work on `Oc1ccccc1` [phenol] yielded a mass density (313.15 K) of 1058.3 ± 0.11 kg/m3.
